Laboratory results from patent US20190359653A1, “SELECTIVE PEPTIDE INHIBITORS OF FRIZZLED” (Genentech, Inc., priority 2016, published 2019).

Test system: Lgr5-GFP organoids pre-treated with CHIR99021; APC^min organoids
Test: RT-PCR in organoids with active downstream Wnt signaling (CHIR99021 or APC^min)
Format: cell-based, mouse
Conditions: peptide 100 μM, 24 h; CHIR99021 5 μM pre-treatment or Apc mutant background
Procedure: Mouse organoids were established from isolated crypts collected from the entire length of the small intestine and maintained as previously described (Sato et al. (2009) Nature 459, 262-265 (2009). All mouse derived tissue was performed according to the animal use guidelines of Genentech, a Member of the Roche Group, and the Institutional Animal Care and Use Committee, conforming to California State legal and ethical practices. Mouse sex was not selected for. Organoids were passaged at least twice per week and grown using IntestiCult Organoid growth media (cat. no. 06005; StemCell Technologies). Peptides were suspended in DMSO and dissolved in media to 1% DMSO final concentration, then added to organoids to initiate drug treatment. Antibodies were added to 10 μg/ml concentration. […]
Briefly, Lgr5-GFP organoids were pre-treated with DMSO or the Gsk3β inhibitor CHIR99021 (5 μM) for 24 h, then treated with DMSO, dFz7-21 (100 μM), or Fz7-21S (100 μM)±CHIR99021. Transcripts were quantified by RT-PCR for Axin2 (FIG. 42A), and Asc12 (FIG. 42B). In a second set of experiments, APC^min organoids were cultured and treated with DMSO, dFz7-21 (100 μM), Fz7-21S (100 μM) for 24 h, and transcripts were quantified by RT-PCR for Axin2 (FIG. 42C), Asc12 (FIG. 42D), and Lgr5 ([…]).

Sequence: LPSDDLEFWCHVMY [dFz7-21]
- stem cell (Lgr5, Ascl2) and Wnt signaling (Axin2) markers: Little or no effect
